# According to the supplement of paper PMC10307832:
# Columns and labels:
# Test in all cases: relative viability (nuclei count vs DMSO), 5 days (fraction); higher = more cells survive
# [1] = tested on: NCI-H358
# In short: (§1)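 The day after seeding in 1536-well plates, lung cancer cell lines were treated by pin tool with a single drug, or with a fixed anchor-drug dose together with five library-drug doses (not always all listed) in √10 steps. After 5 days, a combined fix-and-stain solution (final 0.05% Triton X-100, 1% formaldehyde, 1 ug/ml Hoechst) was added. Nuclei counted on 4× images gave relative viability as treated counts over vehicle counts, reported as the median of duplicate plates.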
# [2] = tested on: PC-14
# In short: as §1
# [3] = tested on: NCI-H838
# In short: as §1
# [4] = tested on: HOP-62
# In short: as §1
# [5] = tested on: NCI-H1993
# In short: as §1
# [6] = tested on: LC-2-ad
# In short: as §1
# [7] = tested on: LU99A
# In short: as §1
# [8] = tested on: HCC-44
# In short: as §1
# [9] = tested on: EPLC-272H
# In short: as §1
# [10] = tested on: NCI-H650
# In short: as §1
# [11] = tested on: NCI-H2085
# In short: as §1
# [12] = tested on: NCI-H1355
# In short: as §1
# [13] = tested on: HARA
# In short: as §1
# [14] = tested on: NCI-H2347
# In short: as §1
# [15] = tested on: NCI-H1651
# In short: as §1
# [16] = tested on: NCI-H2126
# In short: as §1
# [17] = tested on: HCC-15
# In short: as §1
# [18] = tested on: ABC-1
# In short: as §1
# [19] = tested on: NCI-H1915
# In short: as §1
smiles,measurement,setting,value
CCN(CC)CCCCNc1ncc2cc(-c3cc(OC)cc(OC)c3)c(NC(=O)NC(C)(C)C)nc2n1 + NC(=O)Nc1cc(-c2cccc(F)c2)sc1C(=O)N[C@H]1CCCNC1 [AZD7762] (partner 0.2 µM),relative viability,[1]; first compound 0.01 µM,0.444
same,relative viability,[1]; first compound 0.03162 µM,0.52
same,relative viability,[1]; first compound 0.1 µM,0.593
same,relative viability,[1]; first compound 0.3162 µM,0.64
same,relative viability,[1]; first compound 1 µM,0.395
same,relative viability,[2]; first compound 0.01 µM,0.352
same,relative viability,[2]; first compound 0.03162 µM,0.347
same,relative viability,[2]; first compound 0.1 µM,0.568
same,relative viability,[2]; first compound 0.3162 µM,0.497
same,relative viability,[2]; first compound 1 µM,0.316
same,relative viability,[3]; first compound 0.01 µM,0.734
same,relative viability,[3]; first compound 0.03162 µM,0.956
same,relative viability,[3]; first compound 0.1 µM,0.992
same,relative viability,[3]; first compound 0.3162 µM,1.1
same,relative viability,[3]; first compound 1 µM,0.76
same,relative viability,[4]; first compound 0.01 µM,0.343
same,relative viability,[4]; first compound 0.03162 µM,0.666
same,relative viability,[4]; first compound 0.1 µM,0.939
same,relative viability,[4]; first compound 0.3162 µM,0.684
same,relative viability,[4]; first compound 1 µM,0.431
same,relative viability,[5]; first compound 0.01 µM,0.896
same,relative viability,[5]; first compound 0.03162 µM,0.708
same,relative viability,[5]; first compound 0.1 µM,0.721
same,relative viability,[5]; first compound 0.3162 µM,0.97
same,relative viability,[5]; first compound 1 µM,0.869
same,relative viability,[6]; first compound 0.01 µM,0.878
same,relative viability,[6]; first compound 0.03162 µM,0.798
same,relative viability,[6]; first compound 0.1 µM,0.92
same,relative viability,[6]; first compound 0.3162 µM,0.932
same,relative viability,[6]; first compound 1 µM,0.815
same,relative viability,[7]; first compound 0.01 µM,0.325
same,relative viability,[7]; first compound 0.03162 µM,0.486
same,relative viability,[7]; first compound 0.1 µM,0.323
same,relative viability,[7]; first compound 0.3162 µM,0.35
same,relative viability,[7]; first compound 1 µM,0.289
same,relative viability,[8]; first compound 0.01 µM,1
same,relative viability,[8]; first compound 0.03162 µM,1.02
same,relative viability,[8]; first compound 0.1 µM,1.02
same,relative viability,[8]; first compound 0.3162 µM,1.02
same,relative viability,[8]; first compound 1 µM,1.12
same,relative viability,[9]; first compound 0.01 µM,0.199
same,relative viability,[9]; first compound 0.1 µM,0.36
same,relative viability,[9]; first compound 0.3162 µM,0.188
same,relative viability,[9]; first compound 1 µM,0.198
same,relative viability,[10]; first compound 0.01 µM,0.909
same,relative viability,[10]; first compound 0.03162 µM,0.944
same,relative viability,[10]; first compound 0.1 µM,0.97
same,relative viability,[10]; first compound 0.3162 µM,1.22
same,relative viability,[10]; first compound 1 µM,0.994
same,relative viability,[11]; first compound 0.01 µM,0.991
same,relative viability,[11]; first compound 0.03162 µM,1.05
same,relative viability,[11]; first compound 0.1 µM,1.05
same,relative viability,[11]; first compound 0.3162 µM,1.04
same,relative viability,[11]; first compound 1 µM,0.912
same,relative viability,[12]; first compound 0.01 µM,0.809
same,relative viability,[12]; first compound 0.03162 µM,0.776
same,relative viability,[12]; first compound 0.1 µM,0.766
same,relative viability,[12]; first compound 0.3162 µM,0.801
same,relative viability,[12]; first compound 1 µM,0.515
same,relative viability,[13]; first compound 0.01 µM,0.245
same,relative viability,[13]; first compound 0.03162 µM,0.376
same,relative viability,[13]; first compound 0.1 µM,0.327
same,relative viability,[13]; first compound 0.3162 µM,0.277
same,relative viability,[13]; first compound 1 µM,0.241
same,relative viability,[14]; first compound 0.01 µM,0.737
same,relative viability,[14]; first compound 0.03162 µM,0.622
same,relative viability,[14]; first compound 0.1 µM,0.842
same,relative viability,[14]; first compound 0.3162 µM,0.748
same,relative viability,[14]; first compound 1 µM,0.684
same,relative viability,[15]; first compound 0.01 µM,0.444
same,relative viability,[15]; first compound 0.03162 µM,0.508
same,relative viability,[15]; first compound 0.1 µM,0.497
same,relative viability,[15]; first compound 0.3162 µM,0.608
same,relative viability,[15]; first compound 1 µM,0.397
same,relative viability,[16]; first compound 0.01 µM,0.976
same,relative viability,[16]; first compound 0.03162 µM,1
same,relative viability,[16]; first compound 0.1 µM,1.15
same,relative viability,[16]; first compound 0.3162 µM,1.13
same,relative viability,[16]; first compound 1 µM,1.01
same,relative viability,[17]; first compound 0.01 µM,1.22
same,relative viability,[17]; first compound 0.03162 µM,1.17
same,relative viability,[17]; first compound 0.1 µM,1.22
same,relative viability,[17]; first compound 0.3162 µM,1.37
same,relative viability,[17]; first compound 1 µM,1.12
same,relative viability,[18]; first compound 0.01 µM,0.766
same,relative viability,[18]; first compound 0.1 µM,1.1
same,relative viability,[18]; first compound 0.3162 µM,0.795
same,relative viability,[18]; first compound 1 µM,0.825
same,relative viability,[19]; first compound 0.01 µM,0.655
same,relative viability,[19]; first compound 0.03162 µM,0.753
same,relative viability,[19]; first compound 0.1 µM,0.708
same,relative viability,[19]; first compound 0.3162 µM,0.757
same,relative viability,[19]; first compound 1 µM,0.736
O=c1cc(N2CCOCC2)oc2c(-c3cccc4c3sc3ccccc34)cccc12 + NC(=O)Nc1cc(-c2cccc(F)c2)sc1C(=O)N[C@H]1CCCNC1 [AZD7762] (partner 0.2 µM),relative viability,[1]; first compound 0.01 µM,0.49
same,relative viability,[1]; first compound 0.03162 µM,0.517
same,relative viability,[1]; first compound 0.1 µM,0.354
same,relative viability,[1]; first compound 0.3162 µM,0.445
same,relative viability,[1]; first compound 1 µM,0.519
same,relative viability,[2]; first compound 0.01 µM,0.306
same,relative viability,[2]; first compound 0.03162 µM,0.322
same,relative viability,[2]; first compound 0.1 µM,0.116
same,relative viability,[2]; first compound 0.3162 µM,0.516
same,relative viability,[2]; first compound 1 µM,0.27
same,relative viability,[3]; first compound 0.01 µM,0.918
same,relative viability,[3]; first compound 0.03162 µM,0.963
same,relative viability,[3]; first compound 0.1 µM,0.934
same,relative viability,[3]; first compound 0.3162 µM,0.93
same,relative viability,[3]; first compound 1 µM,0.924
same,relative viability,[4]; first compound 0.01 µM,0.514
same,relative viability,[4]; first compound 0.03162 µM,0.574
same,relative viability,[4]; first compound 0.1 µM,0.188
same,relative viability,[4]; first compound 0.3162 µM,0.745
same,relative viability,[4]; first compound 1 µM,0.689
same,relative viability,[5]; first compound 0.01 µM,0.832
same,relative viability,[5]; first compound 0.03162 µM,0.764
same,relative viability,[5]; first compound 0.1 µM,0.779
same,relative viability,[5]; first compound 0.3162 µM,0.692
same,relative viability,[5]; first compound 1 µM,0.715
same,relative viability,[6]; first compound 0.01 µM,0.815
same,relative viability,[6]; first compound 0.03162 µM,0.777
same,relative viability,[6]; first compound 0.1 µM,0.831
same,relative viability,[6]; first compound 0.3162 µM,0.817
same,relative viability,[6]; first compound 1 µM,0.785
same,relative viability,[7]; first compound 0.01 µM,0.37
same,relative viability,[7]; first compound 0.03162 µM,0.415
same,relative viability,[7]; first compound 0.1 µM,0.438
same,relative viability,[7]; first compound 0.3162 µM,0.314
same,relative viability,[7]; first compound 1 µM,0.384
same,relative viability,[8]; first compound 0.01 µM,1.03
same,relative viability,[8]; first compound 0.03162 µM,1.08
same,relative viability,[8]; first compound 0.1 µM,0.973
same,relative viability,[8]; first compound 0.3162 µM,1.01
same,relative viability,[8]; first compound 1 µM,0.966
same,relative viability,[9]; first compound 0.01 µM,0.244
same,relative viability,[9]; first compound 0.03162 µM,0.282
same,relative viability,[9]; first compound 0.1 µM,0.12
same,relative viability,[9]; first compound 0.3162 µM,0.31
same,relative viability,[9]; first compound 1 µM,0.211
same,relative viability,[10]; first compound 0.01 µM,1.11
same,relative viability,[10]; first compound 0.03162 µM,1.15
same,relative viability,[10]; first compound 0.3162 µM,1.15
same,relative viability,[10]; first compound 1 µM,1.24
same,relative viability,[11]; first compound 0.01 µM,1
same,relative viability,[11]; first compound 0.03162 µM,1.02
same,relative viability,[11]; first compound 0.1 µM,0.887
same,relative viability,[11]; first compound 0.3162 µM,1.05
same,relative viability,[11]; first compound 1 µM,1.01
same,relative viability,[12]; first compound 0.01 µM,0.726
same,relative viability,[12]; first compound 0.03162 µM,0.676
same,relative viability,[12]; first compound 0.1 µM,0.255
same,relative viability,[12]; first compound 0.3162 µM,0.903
same,relative viability,[12]; first compound 1 µM,0.72
same,relative viability,[13]; first compound 0.01 µM,0.501
same,relative viability,[13]; first compound 0.03162 µM,0.303
same,relative viability,[13]; first compound 0.1 µM,0.302
same,relative viability,[13]; first compound 0.3162 µM,0.343
same,relative viability,[13]; first compound 1 µM,0.357
same,relative viability,[14]; first compound 0.01 µM,0.843
same,relative viability,[14]; first compound 0.03162 µM,0.791
same,relative viability,[14]; first compound 0.1 µM,0.601
same,relative viability,[14]; first compound 0.3162 µM,0.714
same,relative viability,[14]; first compound 1 µM,0.601
same,relative viability,[15]; first compound 0.01 µM,0.494
same,relative viability,[15]; first compound 0.03162 µM,0.504
same,relative viability,[15]; first compound 0.1 µM,0.454
same,relative viability,[15]; first compound 0.3162 µM,0.44
same,relative viability,[15]; first compound 1 µM,0.384
same,relative viability,[16]; first compound 0.01 µM,0.982
same,relative viability,[16]; first compound 0.03162 µM,0.97
same,relative viability,[16]; first compound 0.1 µM,1.12
same,relative viability,[16]; first compound 0.3162 µM,0.981
same,relative viability,[16]; first compound 1 µM,1.02
same,relative viability,[17]; first compound 0.01 µM,1.23
same,relative viability,[17]; first compound 0.03162 µM,1.46
same,relative viability,[17]; first compound 0.1 µM,1.3
same,relative viability,[17]; first compound 0.3162 µM,1.26
same,relative viability,[17]; first compound 1 µM,1.54
same,relative viability,[18]; first compound 0.01 µM,0.819
same,relative viability,[18]; first compound 0.03162 µM,0.774
same,relative viability,[18]; first compound 0.1 µM,0.695
same,relative viability,[18]; first compound 0.3162 µM,0.694
same,relative viability,[18]; first compound 1 µM,0.848
same,relative viability,[19]; first compound 0.01 µM,0.763
same,relative viability,[19]; first compound 0.03162 µM,0.725
same,relative viability,[19]; first compound 0.1 µM,0.731
same,relative viability,[19]; first compound 0.3162 µM,0.658
same,relative viability,[19]; first compound 1 µM,0.675
